Data set [1] concerns the target human muscarinic M3 receptor (Homo sapiens, UniProt P20309).
From the text: Test Example 1: Evaluation of Muscarinic M3 Receptor Positive Allosteric Modulator Activity
a) Construction of Vector Expressing Human Muscarinic M3 Receptor
A human muscarinic M3 receptor gene (GenBank Accession No.: NM_000740.2) was introduced into an expression vector pcDNA3.1™ (Life Technologies).
b) Construction of Cells Stably Expressing Human Muscarinic M3 Receptor
A vector expressing a human muscarinic M3 receptor was introduced into a CHO—K1 cell (ATCC No.: CCL-61). The introduction was carried out according to the attached instructions, using a transfection reagent, Lipofectoamine (registered trademark) 2000 Reagent (Life Technologies). The cells were incubated in an alpha Modified Eagle Minimum Essential Medium (α-MEM) including 2 mM glutamine, 10% fetal bovine serum, and 2.0 mg/mL Geneticin (registered trademark) (Life Technologies) for 4 weeks to acquire a drug-resistant clone.
c) Measurement of Intracellular Ca^2+ Concentration
The cells obtained in b) above were suspended in an α-MEM including 2 mM glutamine, 10% fetal bovine serum, and 0.2 mg/mL Geneticin (registered trademark) to the amount from 1.2 to 1.5×10^4 cells/well the day before the experiment, dispensed into a 384-well plate (Model No. 355962, BD Biosciences), and incubated overnight at 37° C. and 5% CO2. The medium was replaced with a loading buffer (an assay buffer (Hank's balanced salt solution (HBSS), 1 g/L BSA, 20 mM HEPES (pH 7.5), and 2.5 mM probenecid), including 3.1 μM Fluo 4-AM (Dojindo Laboratories) and incubated for about 2 hours at room temperature. Thereafter, the cells were washed with a plate washer ELx405™ (BIO-TEK Instrument, Inc.) set with the assay buffer, and set in an intracellular Ca^2+ concentration measuring system (FLIPR^tetra (registered trademark), Molecular Device Co.). The test substances (final concentration of 1 μM or 10 μM) and carbachol (Sigma, final concentration of 0.0024 nM to 10 μM) which had each been dissolved in the assay buffer in advance were set in a FLIPR^tetra (registered trademark). The test substances were added to the cells in the device and after about 5 minutes, carbachol was added to the cells. An increase rate of the intracellular Ca^2+ concentration by carbachol was measured (excitement wavelength of 470 nm to 495 nm and a fluorescence wavelength of 515 nm to 575 nm).
For the muscarinic M3 receptor-positive allosteric modulator activity, a shift toward a lower concentration side of a carbachol concentration-response curve by the test substance was used as an index. […] For example, when the EC50 value of carbachol in the absence of the test substance was 0.1 μM and the EC50 value of carbachol in the presence of the test substance was 0.01 μM, the value of the muscarinic M3 receptor-positive allosteric modulator activity becomes 10, showing that the test substance causes a 10-fold shift in the EC50 value toward to the low concentration side.
Data set [2] deals with T1, human c-Mpl-introduced Ba/F3 cell (Homo sapiens, UniProt P40238).
T1 construct: expressed in transfected cells
T1 sequence (P40238 26-635): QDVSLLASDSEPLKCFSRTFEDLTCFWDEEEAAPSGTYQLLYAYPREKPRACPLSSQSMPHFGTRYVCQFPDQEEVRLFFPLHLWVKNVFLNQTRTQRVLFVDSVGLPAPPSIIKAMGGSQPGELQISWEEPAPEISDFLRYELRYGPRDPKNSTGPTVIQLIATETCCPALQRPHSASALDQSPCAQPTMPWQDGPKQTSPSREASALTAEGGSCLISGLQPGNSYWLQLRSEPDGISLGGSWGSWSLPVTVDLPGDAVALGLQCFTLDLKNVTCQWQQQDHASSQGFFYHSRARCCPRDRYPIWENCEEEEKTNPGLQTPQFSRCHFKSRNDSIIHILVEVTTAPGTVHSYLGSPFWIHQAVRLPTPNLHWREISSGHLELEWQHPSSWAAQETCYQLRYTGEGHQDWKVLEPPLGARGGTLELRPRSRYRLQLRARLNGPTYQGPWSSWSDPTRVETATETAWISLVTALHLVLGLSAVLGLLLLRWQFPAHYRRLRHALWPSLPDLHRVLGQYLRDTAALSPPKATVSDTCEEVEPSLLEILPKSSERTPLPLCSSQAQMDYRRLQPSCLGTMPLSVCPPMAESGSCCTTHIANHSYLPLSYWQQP
The data set can be described thus: Test Example 2: human c-Mpl-introduced Ba/F3 cell proliferative activity. In kind it is cell-based. The following applies: concentration exhibiting 30% proliferation; 100% = positive control (Example 315 of Patent Document 1) at 1 μM. The protocol: Test Example 2: Evaluation of Human c-Mpl-Introduced Ba/F3 Cell Proliferative Activity
The human c-Mpl-introduced Ba/F3 cell proliferation action was measured by the following method.
As a positive control, 1-(5-{[4-(4-chlorothiophen-2-yl)-5-{[(2R)-2-methylpyrrolidin-1-yl]methyl}-1,3-thiazol-2-yl]carbamoyl}-3-fluoropyridin-2-yl)piperidine-4-carboxylic acid hydrochloride disclosed as Example 315 in Patent Document 1, represented by the formula (A1) above, was used. Further, it is known that the compound has a good human c-Mpl-introduced Ba/F3 cell proliferative activity as disclosed in Table 1 in Patent Document 1.
a) Construction of Vector Expressing Human c-Mpl Receptor
A human c-Mpl receptor gene (GenBank Accession No.: M90102.1) was transfected into an expression vector pEF-BOS (Nucleic Acids Research, 18: pp 5322 (1990)).
b) Construction of Cell Stably Expressing Human c-Mpl Receptor
A vector expressing a human c-Mpl receptor was introduced into a Ba/F3 cell (RIKEN BRC: RCB0805). For the introduction, an electroporation method was used. pEF-BOS-c-mpl (10 μg), pSV2bsr (1 μg, Kaken Pharmaceutical Co., Ltd.) and 1×10^7 of Ba/F3 cells were put into cuvettes with a gap width of 0.4 cm and electroporated under a condition of 1.5 kV (25 μF) in a Gene Pulser (registered trademark) (BioRad). The cells were incubated in an RPMI-1640 medium supplemented with a 0.5% WEHI conditioned medium (BD Biosciences) and 10% fetal bovine serum for 3 days, and thereafter, and the cells were incubated for 30 days in an RPMI-1640 medium, to which 10 μg/mL blasticidin had been further added, thereby acquiring a drug-resistant clone.
c) Measurement of Cell Proliferative Activity
The cells obtained in b) above were dispensed into an RPMI-1640 medium supplemented with a 0.5% WEHI conditioned medium and 10% fetal bovine serum, and used. The day before the experiment, the test substances (final concentration of 100 nM to 10 μM) which had been dissolved in a medium for assay (an RPMI-1640 medium supplemented with 10% fetal bovine serum) were added to a 384-well plate (Model No. 781185, Greiner bio-one). The cells after the medium had been replaced with the medium for assay were dispensed to a 384-well plate to which the test substance had been added, to 1×10^4 cells/well, and incubated overnight at 37° C. and 5% CO2. On the experiment day, a solution of a Cell counting kit (Dojindo Laboratories) was added to each well of the 384-well plate, and the cells were incubated for about 5 hours at 37° C. and 5% CO2. Thereafter, the absorbance (an absorbance wavelength of 450 nm) of each well was measured using Safire^2 (registered trademark) (TECAN), and used as an index for the number of cells. Further, as a negative control, a well to which the test substances had not been added was prepared.
By taking the absorbance of the well to which the test substance had been not added as 0% and taking the absorbance in a case where the positive control had been added to a final concentration of 1 μM as 100%, a cell proliferation rate (%) was calculated from the absorbance of the well to which the test substance had been added.

Where only a bound is given, the exact number is not on record here.

Chain of human muscarinic M3 receptor (P20309 whole entry): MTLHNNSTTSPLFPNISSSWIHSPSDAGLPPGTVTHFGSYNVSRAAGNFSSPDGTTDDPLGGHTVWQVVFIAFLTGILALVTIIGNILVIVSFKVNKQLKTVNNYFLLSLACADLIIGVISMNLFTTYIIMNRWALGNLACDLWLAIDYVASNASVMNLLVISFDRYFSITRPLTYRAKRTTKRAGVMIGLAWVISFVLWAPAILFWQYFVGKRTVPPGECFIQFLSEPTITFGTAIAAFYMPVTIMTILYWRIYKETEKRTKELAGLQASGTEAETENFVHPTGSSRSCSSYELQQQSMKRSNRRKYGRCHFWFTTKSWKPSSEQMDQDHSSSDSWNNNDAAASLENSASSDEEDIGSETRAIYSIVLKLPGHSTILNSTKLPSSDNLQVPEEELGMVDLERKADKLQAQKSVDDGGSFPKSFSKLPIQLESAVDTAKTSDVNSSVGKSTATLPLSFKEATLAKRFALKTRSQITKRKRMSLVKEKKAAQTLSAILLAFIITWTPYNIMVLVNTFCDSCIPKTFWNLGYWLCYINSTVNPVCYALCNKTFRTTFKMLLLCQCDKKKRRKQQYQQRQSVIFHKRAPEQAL

Regarding `CC(C(=O)O)N1CCN(c2cnc(C(=O)Nc3nc(-c4cc(Cl)cc(C(F)(F)F)c4)c(CN4CCC[C@H]4C)s3)cn2)CC1` (stereo partly drawn) [Example 12], in data set [1], the “muscarinic M3 receptor-positive allosteric modulator activity, 1 μM (-fold shift)” value is reported as 33 -fold shift and the “muscarinic M3 receptor-positive allosteric modulator activity, 10 μM (-fold shift)” value is given as 178 -fold shift. Further, the “human c-Mpl-introduced Ba/F3 cell proliferative activity EC30” value in data set [2] is above 10 µM.

`C[C@@H]1CCCN1Cc1sc(NC(=O)c2cnc(N3CCN(CCC(=O)O)C[C@@H]3C)cn2)nc1-c1cc(F)cc(C(F)(F)F)c1` [Example 17]: in data set [1], the “muscarinic M3 receptor-positive allosteric modulator activity, 1 μM (-fold shift)” value is listed as 15 -fold shift and the “muscarinic M3 receptor-positive allosteric modulator activity, 10 μM (-fold shift)” value is on record as 109 -fold shift. For the same compound, the “human c-Mpl-introduced Ba/F3 cell proliferative activity EC30” value in data set [2] is above 10 µM.

Regarding `C[C@@H]1CCCN1Cc1sc(NC(=O)c2cnc(N3CCN(CCC(=O)O)CC3)cn2)nc1-c1cc(Br)cc(C(F)(F)F)c1` [Example 27], in data set [1], the “muscarinic M3 receptor-positive allosteric modulator activity, 1 μM (-fold shift)” value is reported as 31 -fold shift and the “muscarinic M3 receptor-positive allosteric modulator activity, 10 μM (-fold shift)” value was 330 -fold shift. Moreover, in data set [2], the “human c-Mpl-introduced Ba/F3 cell proliferative activity EC30” value is above 10 µM.

On to `COc1ncc(-c2nc(NC(=O)c3cnc(N4CCN(CCC(=O)O)CC4)cn3)sc2CN2CCC[C@H]2C)cc1C(F)(F)F` [Example 33], for which, in data set [1], the “muscarinic M3 receptor-positive allosteric modulator activity, 1 μM (-fold shift)” value was 40 -fold shift and the “muscarinic M3 receptor-positive allosteric modulator activity, 10 μM (-fold shift)” value was 182 -fold shift. Further, the “human c-Mpl-introduced Ba/F3 cell proliferative activity EC30” value in data set [2] was above 10 µM.

Take `CC[C@@H]1CCCN1Cc1sc(NC(=O)c2cnc(N3CCN(CC(=O)O)CC3)cn2)nc1-c1ccc(OC)c(C(F)(F)F)c1` [Example 41]: in data set [1], the “muscarinic M3 receptor-positive allosteric modulator activity, 1 μM (-fold shift)” value was 43 -fold shift and the “muscarinic M3 receptor-positive allosteric modulator activity, 10 μM (-fold shift)” value is on record as 160 -fold shift. The “human c-Mpl-introduced Ba/F3 cell proliferative activity EC30” value in data set [2] is above 10 µM.

As for `CCOc1ccc(-c2nc(NC(=O)c3cnc(N4CCN(CCC(=O)O)CC4)cn3)sc2CN2CCC[C@H]2C)cc1C(F)(F)F` [Example 54], in data set [1], the “muscarinic M3 receptor-positive allosteric modulator activity, 1 μM (-fold shift)” value is on record as 36 -fold shift and the “muscarinic M3 receptor-positive allosteric modulator activity, 10 μM (-fold shift)” value is on record as 134 -fold shift. In data set [2], the “human c-Mpl-introduced Ba/F3 cell proliferative activity EC30” value was above 10 µM.

In the case of `CC[C@@H]1CCCN1Cc1sc(NC(=O)c2cnc(N3CCN(CC(=O)O)CC3)cn2)nc1-c1cc(F)cc(C(F)(F)F)c1` [Example 62], in data set [1], the “muscarinic M3 receptor-positive allosteric modulator activity, 1 μM (-fold shift)” value was 37 -fold shift and the “muscarinic M3 receptor-positive allosteric modulator activity, 10 μM (-fold shift)” value is 195 -fold shift. For the same compound, the “human c-Mpl-introduced Ba/F3 cell proliferative activity EC30” value in data set [2] is above 10 µM.

Regarding `C[C@@H]1CCCN1Cc1sc(NC(=O)c2cnc(N3CCN(CCC(=O)O)CC3)cn2)nc1-c1ccc(C2CC2)c(C(F)(F)F)c1` [Example 63], in data set [1], the “muscarinic M3 receptor-positive allosteric modulator activity, 1 μM (-fold shift)” value was 39 -fold shift and the “muscarinic M3 receptor-positive allosteric modulator activity, 10 μM (-fold shift)” value is 186 -fold shift. Moreover, the “human c-Mpl-introduced Ba/F3 cell proliferative activity EC30” value in data set [2] was above 10 µM.

Take `CC[C@@H]1CCCN1Cc1sc(NC(=O)c2cnc(N3CCN(CCC(=O)O)CC3)cn2)nc1-c1cc(C2CC2)cc(C(F)(F)F)c1` [Example 69]: in data set [1], the “muscarinic M3 receptor-positive allosteric modulator activity, 1 μM (-fold shift)” value is reported as 27 -fold shift and the “muscarinic M3 receptor-positive allosteric modulator activity, 10 μM (-fold shift)” value is given as 177 -fold shift. Moreover, the “human c-Mpl-introduced Ba/F3 cell proliferative activity EC30” value in data set [2] was above 10 µM.

On to `Cc1cc(-c2nc(NC(=O)c3cnc(N4CCN(CC(=O)O)CC4)cn3)sc2CN2CCC[C@H]2C)cc(C(F)(F)F)c1` [Example 71], for which, in data set [1], the “muscarinic M3 receptor-positive allosteric modulator activity, 1 μM (-fold shift)” value was 28 -fold shift and the “muscarinic M3 receptor-positive allosteric modulator activity, 10 μM (-fold shift)” value is given as 151 -fold shift. In addition, the “human c-Mpl-introduced Ba/F3 cell proliferative activity EC30” value in data set [2] was above 10 µM.

On to `C[C@@H]1CN(c2cnc(C(=O)Nc3nc(-c4cc(Cl)cs4)c(CN4CCC[C@H]4C)s3)cn2)CCN1CCC(=O)O` [Example 79], for which, in data set [1], the “muscarinic M3 receptor-positive allosteric modulator activity, 1 μM (-fold shift)” value was 60 -fold shift and the “muscarinic M3 receptor-positive allosteric modulator activity, 10 μM (-fold shift)” value is 171 -fold shift. Also, in data set [2], the “human c-Mpl-introduced Ba/F3 cell proliferative activity EC30” value stood at 1.8 µM.

As to `CC[C@@H]1CCCN1Cc1sc(NC(=O)c2cnc(N3CCN(CCC(=O)O)[C@@H](C)C3)cn2)nc1-c1cc(Cl)cs1` [Example 81], in data set [1], the “muscarinic M3 receptor-positive allosteric modulator activity, 1 μM (-fold shift)” value is 89 -fold shift and the “muscarinic M3 receptor-positive allosteric modulator activity, 10 μM (-fold shift)” value is reported as 94 -fold shift. For the same compound, the “human c-Mpl-introduced Ba/F3 cell proliferative activity EC30” value in data set [2] is 0.5 µM.

`COc1c(F)cc(-c2nc(NC(=O)c3cnc(N4CCN(CCC(=O)O)C[C@@H]4C)cn3)sc2CN2CCC[C@H]2C)cc1C(F)(F)F` [Example 91]: in data set [1], the “muscarinic M3 receptor-positive allosteric modulator activity, 1 μM (-fold shift)” value is listed as 19 -fold shift and the “muscarinic M3 receptor-positive allosteric modulator activity, 10 μM (-fold shift)” value is 139 -fold shift. Also, the “human c-Mpl-introduced Ba/F3 cell proliferative activity EC30” value in data set [2] is above 10 µM.

For the compound `COc1c(F)cc(-c2nc(NC(=O)c3cnc(N4CCN(CCC(=O)O)C[C@H]4C)cn3)sc2CN2CCC[C@H]2C)cc1C(F)(F)F` [Example 92], in data set [1], the “muscarinic M3 receptor-positive allosteric modulator activity, 1 μM (-fold shift)” value is recorded as 30 -fold shift and the “muscarinic M3 receptor-positive allosteric modulator activity, 10 μM (-fold shift)” value is recorded as 203 -fold shift. Moreover, the “human c-Mpl-introduced Ba/F3 cell proliferative activity EC30” value in data set [2] is above 10 µM.

Take `C[C@@H]1CCCN1Cc1sc(NC(=O)c2cnc(N3CCN(CCC(=O)O)CC3)cn2)nc1-c1cc(Br)cs1` [Example 97]: in data set [1], the “muscarinic M3 receptor-positive allosteric modulator activity, 1 μM (-fold shift)” value was 55 -fold shift and the “muscarinic M3 receptor-positive allosteric modulator activity, 10 μM (-fold shift)” value was 121 -fold shift. Besides, the “human c-Mpl-introduced Ba/F3 cell proliferative activity EC30” value in data set [2] was 2.8 µM.

With `C[C@@H]1CCCN1Cc1sc(NC(=O)c2cnc(N3CCN(CCC(=O)O)C[C@@H]3C)cn2)nc1-c1cc(C(F)(F)F)cs1` [Example 100], in data set [1], the “muscarinic M3 receptor-positive allosteric modulator activity, 1 μM (-fold shift)” value is 82 -fold shift and the “muscarinic M3 receptor-positive allosteric modulator activity, 10 μM (-fold shift)” value was 229 -fold shift. The “human c-Mpl-introduced Ba/F3 cell proliferative activity EC30” value in data set [2] came to 3.2 µM.

Take `C[C@@H]1CCCN1Cc1sc(NC(=O)c2cnc(N3CCN(CCC(=O)O)C[C@H]3C)cn2)nc1-c1cc(Br)cs1` [Example 101]: in data set [1], the “muscarinic M3 receptor-positive allosteric modulator activity, 1 μM (-fold shift)” value is recorded as 64 -fold shift and the “muscarinic M3 receptor-positive allosteric modulator activity, 10 μM (-fold shift)” value was 112 -fold shift. Besides, the “human c-Mpl-introduced Ba/F3 cell proliferative activity EC30” value in data set [2] was 2.7 µM.

Regarding `C[C@@H]1CCCN1Cc1sc(NC(=O)c2cnc(N3CCN(CC(=O)O)CC3)cn2)nc1-c1cc(C(F)(F)F)cs1` [Example 103], in data set [1], the “muscarinic M3 receptor-positive allosteric modulator activity, 1 μM (-fold shift)” value is given as 202 -fold shift and the “muscarinic M3 receptor-positive allosteric modulator activity, 10 μM (-fold shift)” value was 307 -fold shift. Moreover, in data set [2], the “human c-Mpl-introduced Ba/F3 cell proliferative activity EC30” value was found to be 1.7 µM.

Take `CCN(Cc1sc(NC(=O)c2cnc(N3CCN(CCC(=O)O)CC3)cn2)nc1-c1cc(F)cc(C(F)(F)F)c1)C(C)C` [Example 106]: in data set [1], the “muscarinic M3 receptor-positive allosteric modulator activity, 1 μM (-fold shift)” value is recorded as 41 -fold shift and the “muscarinic M3 receptor-positive allosteric modulator activity, 10 μM (-fold shift)” value was 270 -fold shift. Besides, the “human c-Mpl-introduced Ba/F3 cell proliferative activity EC30” value in data set [2] is above 10 µM.

(Values after US9951060B2, “2-acylaminothiazole derivative or salt thereof” (ASTELLAS PHARMA INC., priority 2014, dated 2018).)
